According to patent publication US20240216513A1, “FATTY ACID-BIFUNCTIONAL DEGRADER CONJUGATES AND THEIR METHODS OF USE” (Novartis AG, priority 2021, published 2024):

Columns and labels:
[1] = BTK FAC plasma stability assay, rat plasma; assay type: in vitro ADME; details: incubation to 24 h
Outline: (§1)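 Compound from a 500 µM acetonitrile:water working solution was spiked into K3-EDTA plasma or Dulbecco's PBS and incubated with shaking at 38 °C. Samples taken at 0, 2, 6 and 24 h were precipitated with cold acetonitrile containing glyburide internal standard. Semi-quantitative LC-MS/MS used analyte:internal standard peak area ratios.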

[2] = BTK FAC plasma stability assay, mouse plasma; assay type: in vitro ADME; details: incubation to 24 h
Outline: as §1

[3] = In vivo pharmacokinetic study in rats (i.v. or s.c.), FAC and payload in blood; set-up: species or system rat; details: for AUC: male, Sprague-Dawley, rat, whole blood, 1 umol/kg
Experimental: Pharmacokinetic studies were conducted in male C57/B16 mice; male Sprague-Dawley rats; male Beagle dogs and male Cynomolgus monkeys. 3 animals per group were used for each study performed. All studies were performed in accordance with local animal welfare regulations.
[…] Serial 30 µL blood samples were collected via venipuncture of the tail vein in mouse, and via the cannulated jugular vein in rats at defined timepoints to 216 hours (into EDTA coated tubes).
Each blood sample was precipitated with acetonitrile containing internal standard; samples were mixed and centrifuged (20 minutes 4000 RPM at 4° C.). Supernatant was transferred to a microwell plate and evaporated under nitrogen at 60° C. Residue was resuspended in acetonitrile/water (7:3 v/v); plate sealed and transferred to an ultrasonic bath for 3 minutes, prior to analysis. Quantification was performed by LC-MS/MS (SciexAP16500 Q-trap, Shimadzu Nexera X2) using a Phenomenex Polar RP analytical column (2.5 μm particle size; 50×2 mm). The mobile phase consisted of solvent A (0.1% formic acid in water) and solvent B (0.1% formic acid in acetonitrile). The fatty acid conjugate and API were detected using multiple reaction monitoring.
Data analysis and calculation of non-compartmental pharmacokinetic parameters was
performed using an in-house analysis. Following intravenous administration whole blood clearance was calculated by the dose administered divided by AUC0-inf. Volume of distribution at steady state was calculated as MRT*CL, where MRT is the mean residence time, calculated by AUMC0-inf/AUC0-inf. The half-life (t1/2) of the terminal elimination phase was calculated by 0.693/λ. For both intravenous and subcutaneous administration, the systemic exposures were determined by calculating the area under the blood concentration time curve (AUC) from time zero to the last observed quantifiable concentration (AUClast) by using the linear trapezoidal method and normalised to dose. Extrapolated AUC (AUC0-inf) is calculated by addition of AUClast and AUCtlast-inf; where AUCtlast-inf is calculated based on Clast/λ. The slope of the terminal elimination phase was estimated by linear regression of the terminal data points (minimum 3 points) from a natural log concentration versus time plot of the data. Bioavailability was calculated as the dose normalized ratio of […] AUCinf to intravenous AUCinf (100*[SC AUCinf/SC dose]/[IV AUCinf/IV dose]). Following subcutaneous administration Cmax is calculated as the average maximum observed peak concentration and Tmax is the time associated with the determined Cmax.
For PK experiments, non-tumor bearing mice or rats were treated once (10 mL/kg) with a compound either i.v. or s.c. Serial blood samplings from the tail vein (5-20 μl) were collected during the course of the experiment. For PK/PD experiments in tumor-bearing mice, compound was administered once (10 mL/kg) either i.v. or s.c. Animals were randomized into groups of n=3 and tissue samples were collected at several time points. At the times indicated, animals were anaesthetized by exposure to 2-3% v/v isoflurane in medical oxygen. They were sacrificed without recovering from anesthetic after blood sampling into commercially prepared EDTA coated tubes (Milian, cat #TOM-14C) in order to extract plasma. The tissues were excised, weighted and rapidly frozen in liquid nitrogen. Later, tumors were cryogenic dry pulverized with the CryoPrep™ system (model CP-02, Covaris). For efficacy experiments in ectopic tumor-bearing mice, animals were randomized into groups of n=6 for a mean tumor size of 100 mm^3 and compound was administered either i.v. q3w or s.c. q2w. When implanted in brain, animals were randomized into groups of n=4 for a mean bioluminescence of 1.0-2.0E+06 [p/s]/[ρW/cm^2] and compound was administered i.v. qw. Tumor response were reported with the measures of tumor volumes or bioluminescence from the treatment start. […]

[4] = In vivo pharmacokinetic study in mice (i.v. or s.c.), FAC and payload in blood; set-up: species or system mouse; details: for AUC: male, C57/B16, whole blood

COc1ccc(C(=O)N2CCC3(CCN(CCc4ccc(-c5cc6c(-c7cc(F)cc(NC(=O)c8ccc(C(C)(C)O)cc8F)c7C)ncnc6[nH]5)cc4)CC3)CC2)cc1N1CCC(=O)NC1=O [Compound V, N-(3-(6-(4-(2-(9-(3-(2,4-Dioxotetrahydropyrimidin-1(2H)-yl)-4-methoxybenzoyl)-3,9-diazaspiro[5.5]undecan-3-yl)ethyl)phenyl)-7H-pyrrolo[2,3-d]pyrimidin-4-yl)-5-fluoro-2-methylphenyl)-2-fluoro-4-(2-hydroxypropan-2-yl)benzamide]
Plasma stability (h) rat [1]: 39.3 h
Plasma stability (h) mouse [2]: 27.1 h
Payload C0-uM (unconjugated degrader dosed, second payload cell) ([3]; API i.v., species taken as rat, listed as note (1 umol/kg)): 1.1 µM
AUC ([3]; iv, API i.v., species taken as rat, listed as note (1 umol/kg), read-out: Payload AUC-uM.h (unconjugated degrader dosed, second payload cell)): 0.57 µM·h
AUC ([3]; sc, subcutaneous dosing, unconjugated Compound V at 1 umol/kg, read-out: Payload AUC): 0.57 µM·h
Payload C0-uM (unconjugated degrader dosed, first payload cell) ([4]; API i.v., species taken as mouse, listed as note (1 umol/kg), head 10 umol/kg): 8.1 µM
AUC ([4]; iv, API i.v., species taken as mouse, listed as note (1 umol/kg), head 10 umol/kg, read-out: Payload AUC-uM.h (unconjugated degrader dosed, first payload cell)): 8.2 µM·h
AUC ([4]; sc, mouse, subcutaneous dosing, unconjugated Compound V at 1 umol/kg, read-out: Payload AUC): 8.2 µM·h
